Source: US9505792B2, “Forms of cidofovir” (Johnson Matthey Public Limited Company, priority 2011, dated 2016)

Assay: Occupational exposure assessment (full monograph) of the final product
Settings: final crystalline cidofovir dihydrate product; remains within category band 5 (safebridge category 3)
Excerpt: A full monograph for the final crystalline cidofovir dihydrate product (compound 9) has been completed and it was confirmed that, with an OEL of 0.6 μgm^−3, the product remains within category band 5 (safebridge category 3).

- OEL: 0.6 μgm^−3
Compound: Nc1ccn(C[C@@H](CO)OCP(=O)(O)O)c(=O)n1 [compound 9, cidofovir dihydrate]
